Laboratory results taken from BindingDB's records for PubMed 34043359 (China Pharmaceutical University, 2021).

Biological target: Signal transducer and activator of transcription 3 (Homo sapiens, UniProt P40763)
Experiment: Binding affinity to recombinant GST tagged STAT3 (unknown origin) assessed as dissociation constant

Signal transducer and activator of transcription 3, sequence (P40763 whole entry): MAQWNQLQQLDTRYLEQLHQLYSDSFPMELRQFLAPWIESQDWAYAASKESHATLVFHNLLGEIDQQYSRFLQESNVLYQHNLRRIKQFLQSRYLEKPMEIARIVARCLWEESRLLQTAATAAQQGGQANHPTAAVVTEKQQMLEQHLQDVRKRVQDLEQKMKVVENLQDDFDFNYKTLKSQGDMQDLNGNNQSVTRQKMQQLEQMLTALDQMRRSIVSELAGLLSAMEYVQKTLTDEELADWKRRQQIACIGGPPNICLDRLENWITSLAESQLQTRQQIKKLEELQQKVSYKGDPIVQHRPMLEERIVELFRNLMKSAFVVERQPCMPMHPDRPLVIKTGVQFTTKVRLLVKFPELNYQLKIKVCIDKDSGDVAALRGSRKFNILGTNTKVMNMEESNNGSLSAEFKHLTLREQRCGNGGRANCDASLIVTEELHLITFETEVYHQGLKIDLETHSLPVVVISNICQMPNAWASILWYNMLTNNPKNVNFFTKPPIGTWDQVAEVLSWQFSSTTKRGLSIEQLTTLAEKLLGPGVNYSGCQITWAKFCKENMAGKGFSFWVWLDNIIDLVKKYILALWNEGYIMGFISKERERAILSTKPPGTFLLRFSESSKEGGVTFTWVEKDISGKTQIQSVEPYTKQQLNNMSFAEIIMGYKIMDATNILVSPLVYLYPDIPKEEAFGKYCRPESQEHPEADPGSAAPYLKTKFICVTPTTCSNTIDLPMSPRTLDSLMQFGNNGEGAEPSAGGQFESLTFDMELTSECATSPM

koff: 0.0152 s⁻¹
Structure (SMILES): COc1cc(/C=C/c2ccc(OCCCCCCC(=O)NO)cc2)cc(OC)c1
